The values that follow come from patent US9797884B2, “Marker for determination of sensitivity to anticancer agent” (KEIO UNIVERSITY, priority 2011, dated 2017).

Common to all, as to format: cell-based, human
Data set [1] relates to DLD-1. The experiment in a line: MTS assay cell viability, 48 hours L-OHP exposure. The note with it: DLD-1, 48 hours exposure, read-out: IC50 value (L-OHP concentration at which cell growth is inhibited by 50%). The text has this:
(§1) Ten human colorectal cancer cell lines (DLD-1, HCT15, HCT116, HT29, Lovo, LS174T, SW480, SW620, SW1116, and WiDr) were employed. HCT116 and HT29 were obtained from Kabushiki Kaisha Yakult Honsha. DLD-1, Lovo, SW480, SW1116, and WiDr were obtained from Dainippon Sumitomo Pharma Co., Ltd. HCT15 and LS174T were obtained from Cell Resource Center for Biomedical Research, Institute of Development, Aging and Cancer, Tohoku University. SW620 was obtained from Summit Pharmaceuticals International Corporation.
(§2) Cancer cells of each cell line were exposed to 0- to 1,000-μmol/L L-OHP for 48 hours and after drug exposure, cell viability was determined by means of an MTS assay (CellTiter96™ AQueous One Solution Cell Proliferation Assay, Promega). IC50 value (L-OHP concentration at which cell growth is inhibited by 50% as compared with L-OHP-non-treated sample) was calculated, and sensitivity of each cell line to L-OHP was evaluated by the IC50 value as an index.

Data set [2] concerns HCT116. The experiment in a line: MTS assay cell viability, 48 hours L-OHP exposure. The note with it: HCT116, 48 hours exposure, read-out: IC50 value (L-OHP concentration at which cell growth is inhibited by 50%).
Description: as §1, §2

Data set [3] has as its system HCT15. Briefly: MTS assay cell viability, 48 hours L-OHP exposure.
Description: as §1, §2

Data set [4] has as its system HT29. The experiment in a line: MTS assay cell viability, 48 hours L-OHP exposure. The note with it: HT29, 48 hours exposure, read-out: IC50 value (L-OHP concentration at which cell growth is inhibited by 50%).
Description: as §1, §2

Data set [5] concerns LS174T. Briefly: MTS assay cell viability, 48 hours L-OHP exposure.
Description: as §1, §2

Data set [6] concerns Lovo. Briefly: MTS assay cell viability, 48 hours L-OHP exposure. The note with it: 48 hours exposure, read-out: IC50 value (L-OHP concentration at which cell growth is inhibited by 50%).
Description: as §1, §2

The test system of data set [7] is SW1116. The experiment in a line: MTS assay cell viability, 48 hours L-OHP exposure. The note with it: SW1116, 48 hours exposure, read-out: IC50 value (L-OHP concentration at which cell growth is inhibited by 50%).
Description: as §1, §2

Data set [8] relates to SW480. The experiment in a line: MTS assay cell viability, 48 hours L-OHP exposure. As to conditions: SW480, 48 hours exposure, read-out: IC50 value (L-OHP concentration at which cell growth is inhibited by 50%).
Description: as §1, §2

The subject of data set [9] is SW620. Briefly: MTS assay cell viability, 48 hours L-OHP exposure.
Description: as §1, §2

Data set [10] has as its system WiDr. Briefly: MTS assay cell viability, 48 hours L-OHP exposure. As to conditions: 48 hours exposure, read-out: IC50 value (L-OHP concentration at which cell growth is inhibited by 50%).
Description: as §1, §2

Data set [11] concerns HCT116 and DLD-1 cells. The experiment in a line: CE-TOFMS metabolomic analysis of intracellular metabolites after exposure to L-OHP. The note with it: 10 μM L-OHP, 24-hour exposure. As for the experimental part: Among the cell lines employed in Example 1, two human colorectal cancer cell lines (HCT116 and DLD-1) were employed. Cell culturing was performed by means of a φ100 mm/Tissue Culture Dish (IWAKI) with a medium (Dulbecco's modified Eagle's Medium (DMEM) containing 10% fetal bovine serum (product of Invitrogen) at 37° C. under 5% CO2 conditions.
The two colorectal cancer cells were exposed to L-OHP by changing the culture medium to a medium containing L-OHP at 10 μmol/L. The same culture was performed in an L-OHP-free medium (control group). After exposure to L-OHP (0 hr, 4 hr, 12 hr, 24 hr, and 48 hr), the cells were washed on ice with 5% mannitol (4° C.). Immediately thereafter, methanol (4° C., containing an internal standard) was added to the washed cells, to thereby inactivate present enzymes, and the cells were stored at −80° C. Separately, cells for cell count were provided in addition to the cells from which metabolites were extracted, and then subjected to the same treatment before performing cell count. The data were employed in correction of the cell counts. […]
Comprehensive analysis of intracellular metabolites was performed by means of a capillary electrophoresis-time-of-flight-type mass spectrometer (CE-TOFMS) (product of Agilent Technologies). […] Metabolites detected at m/z values of 50 to 1,000 were simultaneously quantitated.

In data set [12] the test system is HCT116. The experiment in a line: Sensitivity of colorectal cancer cells to 5-FU.
The subject of data set [13] is DLD-1. Briefly: Sensitivity of colorectal cancer cells to 5-FU.

As for `O=C1[O][Pt]2([NH][C@@H]3CCCC[C@H]3[NH]2)[O]C1=O` [L-OHP, (SP-4-2)-[(1R,2R)-cyclohexane-1,2-diamine-κN,κN′][ethanedioato (2-)-κO^1,κO^2]platinum], the IC50 came out at 16.9 ± 6.31 µM in [1]; 0.89 ± 0.33 µM in data set [2]; 23.9 ± 9.29 µM in data set [4]; 0.72 ± 0.12 µM in data set [6]; 26.4 ± 4.12 µM in data set [7]; 0.65 ± 0.07 µM in [8]. Also, in data set [10], the IC50 was found to be 17.3 ± 5.24 µM. The “sensitivity group of the cell line to L-OHP on the basis of the MTS assay” value in [3] is “high-sensitive”; in data set [5] it was “low-sensitive”; in [9] it was “high-sensitive”. The “ratio (HCT116/DLD-1) of IMP intracellular level after exposure relative to control group” value in data set [11] (IMP) was determined as 0.26. The “ratio (HCT116/DLD-1) of intracellular level after exposure relative to control group, each metabolite” value in data set [11] (dTMP, CMP, UMP, GMP, CDP, UDP, dCTP, CTP, UTP, GTP, NADP+, ATP and/or dGTP) is recorded as ≥ 1.2.

As for `O=c1[nH]cc(F)c(=O)[nH]1` [5-FU, fluorouracil], the “sensitivity of the cell line to 5-FU” value in data set [12] is “high-sensitivity”; in data set [13], “low-sensitivity”.
